We go through three compounds from PubChem BioAssay (NCI).

What all share (assay): NCI anticancer screen, dose series, 48 h
Experiment [1] has as its system 786-0 renal.
Experiment [2] deals with A498 renal.
For experiment [3], the system named is NCI/ADR-RES ovarian.
For experiment [4], the system named is OVCAR-8 ovarian.
Experiment [5] deals with RXF 393 renal.
Experiment [6] relates to SF-295 CNS.
In experiment [7] the test system is SR leukemia.
The test system of experiment [8] is SW-620 colon.
Experiment [9] relates to U251 CNS.
Experiment [10] deals with UO-31 renal.

Molecules are shown by their SMILES.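 Values below derive from 48-hour exposures of cells grown in 96-well plates, with endpoints linearly interpolated between the two concentrations bracketing the appropriate inhibition level. Abbreviation: GI50, concentration required for 50% inhibition of growth. Definition used: TGI = concentration required for complete inhibition of growth.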

`CSc1nc(SC)c2cnn(-c3ccnc4cc(Cl)ccc34)c2n1`: the GI50 in experiment [1] is 38.6 µM; in experiment [2], > 100 µM; in [3], 51.2 µM; in experiment [4], > 56.5 µM; in experiment [5], 14.2 µM; in experiment [6], 5.46 µM. Besides, the GI50 in experiment [7] is 7.88 µM; in experiment [8], > 59.1 µM; in experiment [9], 45.4 µM; in experiment [10], > 100 µM. The TGI in experiment [1] was > 100 µM; in experiment [2], > 100 µM; in experiment [3], > 100 µM; in experiment [4], > 100 µM; in experiment [5], 48.6 µM; in [6], > 100 µM. In addition, the TGI in [7] is > 31.9 µM; in experiment [8] it was > 100 µM; in experiment [9], > 100 µM; in experiment [10], > 100 µM.
Take `NS(=O)(=O)c1ccc(N=Nc2c(O)[nH]c3cccc(CCc4ccncc4)c23)cc1`: the GI50 in experiment [1], in experiment [2], in [3], in experiment [4], in [5] and in experiment [6] was > 25 µM each time. Further, the GI50 in [7], in experiment [8], in experiment [9] and in experiment [10] was > 25 µM each time. For the same compound, the TGI in [1], in experiment [2], in experiment [3], in experiment [4], in experiment [5] and in [6] was > 25 µM in each case. Also, the TGI in experiment [7], in experiment [8], in experiment [9] and in experiment [10] was > 25 µM throughout.
Regarding `CCOC(=O)Nc1ccc2c3c(cccc13)-c1ccccc1-2`, the GI50 in experiment [1] was 8 µM; in experiment [2] it was 4.68 µM; in experiment [3] it was 4.32 µM; in [4], > 100 µM; in experiment [5], 6.92 µM; in [6] it was 2.82 µM. Further, the GI50 in [7] is 4.36 µM; in [8], 3.92 µM; in [9], 5.52 µM; in experiment [10], 2.59 µM. For the same compound, the TGI was > 100 µM in experiment [1]; > 100 µM in experiment [2]; > 100 µM in experiment [3]; > 100 µM in experiment [4]; > 100 µM in experiment [5]; 7.87 µM in experiment [6]. Further, the TGI in experiment [7], in [8], in [9] and in experiment [10] was > 100 µM each time.
